US10160771B2, “Hepatitis C virus inhibitors and uses thereof in preparation of drugs” (priority 2014, dated 2018)

Columns and labels:
[1] = tested on: HCV genotype 1a (HCV-1a) replicon cells; assay: HCV genotype 1a replicon luciferase assay (EC50); format: cell-based, hepatitis C virus genotype 1a (H77 clone); details: Hepatitis C virus, 72 h, 3 days, luciferase (Bright-Glo)
How it was run: (§1)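 Compounds were dispensed as 5-fold, 6-point series (highest 100, 10 or 1 nM; 0.5% DMSO) in duplicate. Replicon cells expressing luciferase (H77-derived for 1a, Con1-derived for 1b) were added at 8000 per well and grown 3 days. Luciferase activity was then measured and EC50 fitted.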

[2] = Cell Titer-fluor cell activity assay in HCV-1b replicon cells (CC50); format: cell-based
How it was run: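 Con1 genotype 1b replicon cells (E1202G, T1280I, K1846T adaptive mutations), 8000 cells/well, exposed to 6-point 5-fold dilutions from 100, 10 or 1 nM top concentration in 0.5% DMSO, duplicate wells, 3 days at 37 °C. Viability read by Cell Titer-fluor (Ex 405/Em 515 nm) after 30 min; CC50 from nonlinear fit of inhibition %.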

[3] = tested on: HCV genotype 1b (HCV-1b) replicon cells; assay: HCV genotype 1b replicon luciferase assay (EC50); format: cell-based, hepatitis C virus genotype 1b (Con1 clone); details: Hepatitis C virus, 72 h, 3 days, luciferase (Bright-Glo)
How it was run: as §1

Compound | EC50 [1] [nM] | CC50 at 3 days [2] [nM] | EC50 [3] [nM]
COC(=O)N[C@H](C(=O)N1CCC[C@H]1c1ncc(-c2ccc(-c3ccc(-c4cnc([C@@H]5[C@H]6CC[C@H](C6)[C@H]5C(=O)N[C@@H](C)c5cnccn5)[nH]4)cc3)cc2)[nH]1)C(C)C [AA_270_ENDOA2_A] | 0.001 to 0.1 | > 1 | 0.001 to 0.1
COC(=O)N[C@H](C(=O)N1CCC[C@H]1c1ncc(-c2ccc(-c3ccc(-c4[nH]c([C@@H]5CCCN5C(=O)[C@@H](NC(=O)OC)[C@@H](C)OC)c5c4COC5)cc3)cc2)[nH]1)C(C)C [AG_079_A] | 0.001 to 0.1 | > 5 | 0.001 to 0.1
COC(=O)N[C@H](C(=O)N1CCC[C@H]1c1ncc(-c2ccc(-c3ccc(-c4cnc(C5C6CCC(C6)[C@H]5C(=O)NCc5ccc(C(F)(F)F)nc5)[nH]4)cc3)cc2)[nH]1)[C@@H](C)OC (stereo partly drawn) [AA_264_B] | 10 to 100 | > 1 | 0.101 to 1
COC(=O)N[C@H](C(=O)N1CCCC1c1ncc(-c2ccc(-c3ccc(-c4[nH]c(C5CCCN5C(=O)[C@@H](NC(=O)OC)C(C)C)c5c4CCCC5)cc3)cc2)[nH]1)C(C)C (stereo partly drawn) [AG_014] | 10 to 100 | > 10 | 0.101 to 1
COC(=O)N[C@H](C(=O)N1CCC[C@H]1c1ncc(-c2ccc(-c3ccc(-c4cnc([C@H]5C6CCC(C6)[C@@H]5C(=O)NCc5cccnc5OC)[nH]4)cc3)cc2)[nH]1)C(C)C (stereo partly drawn) [AA_203_A] | 1 to 10 | > 1 | 0.001 to 0.1
COC(=O)N[C@H](C(=O)N1CCC[C@H]1c1[nH]c(-c2ccc(-c3ccc(-c4[nH]c([C@@H]5CCCN5C(=O)[C@@H](NC(=O)OC)[C@@H](C)OC)c5c4COC5)cc3)cc2)c2c1COC2)[C@@H](C)OC [AG_088_A] | 0.101 to 1 | > 1 | 0.001 to 0.1
COC(=O)N[C@H](C(=O)N1CCCC1c1ccc(-c2ccc(-c3ccc(-c4cnc([C@@H]5COC(C)(C)N5C(=O)[C@@H](NC(=O)OC)C(C)C)[nH]4)cc3)cc2)[nH]1)C(C)C (stereo partly drawn) [AG_022] | 10 to 100 | > 10 | 0.101 to 1
COC(=O)N[C@H](C(=O)N1CCC[C@H]1c1ncc(-c2ccc(-c3ccc(-c4cnc(C5C6CCC(C6)[C@@H]5C(=O)N(NC(=O)OC)C(C)C)[nH]4)cc3)c(C)c2)[nH]1)C(C)C (stereo partly drawn) [AA_167] | 1 to 10 | > 1 | 0.001 to 0.1
COC(=O)N[C@H](C(=O)N1CCC[C@H]1c1ncc(-c2ccc(-c3ccc(-c4cnc(C5C6CCC(C6)[C@H]5C(=O)NCc5cccnc5C(C)C)[nH]4)cc3)cc2)[nH]1)[C@@H](C)OC (stereo partly drawn) [AA_245_A] | 10 to 100 | > 1 | 0.001 to 0.1
COC(=O)N[C@H](C(=O)N1CCC[C@H]1c1cnc(-c2ccc(-c3ccc(-c4ncc(C5C6CCC(C6)[C@H]5C(=O)N(NC(=O)OC)C(C)C)[nH]4)cc3)cc2OC)[nH]1)C(C)C (stereo partly drawn) [AA_166_A] | 10 to 100 | > 5 | 0.001 to 0.1
COC(=O)N[C@H](C(=O)N1CCC[C@H]1c1ncc(-c2ccc(-c3ccc(-c4cnc(C5C6CCC(C6)[C@H]5C(=O)Nc5ccccc5)[nH]4)cc3)cc2)[nH]1)[C@@H](C)OC (stereo partly drawn) [AA_246_B] | 10 to 100 | > 1 | 0.101 to 1
COC(=O)N[C@H](C(=O)N1CCC[C@H]1c1ncc(-c2ccc(-c3ccc(-c4cnc(C5C6CCC(C6)[C@@H]5C(=O)NCc5ccc(C(F)(F)F)nc5)[nH]4)cc3)cc2)[nH]1)[C@@H](C)OC (stereo partly drawn) [AA_264_A] | 1 to 10 | > 1 | 0.101 to 1
COC(=O)N[C@H](C(=O)N1CCC[C@H]1c1ccc(-c2ccc(-c3ccc(-c4cnc([C@@H]5CC6(CN5C(=O)[C@H](NC(=O)OC)C(C)C)OCC(C)(C)CO6)[nH]4)cc3)cc2)[nH]1)C(C)C [AG_076] | 10 to 100 | > 5 | 0.001 to 0.1
COC(=O)N[C@H](C(=O)N1CCC[C@H]1c1ncc(-c2ccc(-c3ccc(-c4cnc([C@@H]5[C@H]6CC[C@H](C6)[C@H]5C(=O)N(C)c5ccccn5)[nH]4)cc3)cc2)[nH]1)C(C)C [AA_195_ENDOA2] | 0.101 to 1 | > 1 | 0.001 to 0.1
COC(=O)N[C@H](C(=O)N1CCCC1c1ccc(-c2ccc(-c3ccc(-c4ccc(C5CCCN5C(=O)[C@@H](NC(=O)OC)C(C)C)[nH]4)cc3)cc2)[nH]1)C(C)C (stereo partly drawn) [AG_011] | 10 to 100 | > 1 | 0.001 to 0.1
COC(=O)N[C@H](C(=O)N1CC2(CC2)C[C@H]1c1ncc(-c2ccc(-c3ccc(-c4[nH]c([C@@H]5CCCN5C(=O)[C@@H](NC(=O)OC)[C@@H](C)OC)c5c4COC5)cc3)cc2)[nH]1)C(C)C [AG_117] | 0.101 to 1 | > 1 | 0.001 to 0.1
COC(=O)N[C@H](C(=O)N1CCC[C@H]1c1ncc(-c2ccc(-c3ccc(-c4cnc(C5CC(F)(F)C[C@H]5C(=O)N(NC(=O)OC)C(C)C)[nH]4)cc3)cc2)[nH]1)C(C)C (stereo partly drawn) [AA_138] | 10 to 100 | > 100 | 1 to 10

Compound | EC50 [1] [nM] | CC50 at 3 days [2] [nM] | EC50 [3] [nM]
COC(=O)N[C@H](C(=O)N1CCC[C@H]1c1ncc(-c2ccc(-c3ccc(-c4cnc([C@H]5C6CCC(C6)[C@@H]5C(=O)NCC5CNc6ccccc6C5)[nH]4)cc3)cc2)[nH]1)C(C)C (stereo partly drawn) [AA_218] | 10 to 100 | > 1 | 0.101 to 1
COC[C@H](NC(=O)OC)C(=O)N1CCC[C@H]1c1ccc(-c2ccc(-c3ccc(-c4cnc([C@@H]5CCCN5C(=O)[C@H](COC)NC(=O)OC)[nH]4)cc3)cc2)[nH]1 [AG_109] | 0.101 to 1 | > 1 | 0.001 to 0.1
COC(=O)N[C@H](C(=O)N1CCC[C@H]1c1ncc(-c2ccc(-c3ccc(-c4cnc([C@@H]5[C@H]6CC[C@H](C6)[C@H]5C(=O)NCc5nccs5)[nH]4)cc3)cc2)[nH]1)C(C)C [AA_208_ENDOA2] | 0.101 to 1 | > 1 | 0.001 to 0.1
COC(=O)N[C@H](C(=O)N1CCC[C@H]1c1ncc(-c2ccc(-c3ccc(-c4cnc([C@H]5C6CCC(C6)[C@@H]5C(=O)NCc5cccnc5C(C)C)[nH]4)cc3)cc2)[nH]1)C(C)C (stereo partly drawn) [AA_215_A] | 10 to 100 | > 1 | 0.001 to 0.1
COC(=O)N[C@H](C(=O)N1CCC[C@H]1c1ncc(-c2ccc(-c3ccc(-c4cnc([C@H]5C6CCC(C6)[C@@H]5C(=O)NCc5cncc(C(C)C)c5)[nH]4)cc3)cc2)[nH]1)C(C)C (stereo partly drawn) [AA_235_A] | 10 to 100 | > 1 | 0.001 to 0.1
COC(=O)N[C@H](C(=O)N1CCC[C@H]1c1ccc(-c2ccc(-c3ccc(-c4cnc([C@@H](NC(=O)[C@@H](NC(=O)OC)[C@@H](C)OC)C(C)C)[nH]4)cc3)cc2)[nH]1)C(C)C [AG_102] | 1 to 10 | > 1 | 0.001 to 0.1
COC[C@H](NC(=O)OC)C(=O)N1CCC[C@H]1c1ncc(-c2ccc(-c3ccc(-c4[nH]c([C@@H]5CCCN5C(=O)[C@@H](NC(=O)OC)C(C)C)c5c4CCC5)cc3)cc2)[nH]1 [AG_091] | 1 to 10 | > 1 | 0.001 to 0.1
COC(=O)N[C@H](C(=O)N1CCC[C@H]1c1ncc(-c2ccc(-c3ccc(-c4cnc([C@@H]5C6CCC(C6)[C@H]5C(=O)NCc5cncnc5)[nH]4)cc3)cc2)[nH]1)C(C)C (stereo partly drawn) [AA_201_B] | 1 to 10 | > 1 | 0.001 to 0.1
COC(=O)N[C@H](C(=O)N1CCC[C@@H]1c1[nH]c(-c2ccc(-c3ccc(-c4cnc([C@@H]5CCCN5C(=O)[C@@H](NC(=O)OC)C(C)C)[nH]4)cc3)cc2)c2c1CCO2)C(C)C [AG_122_B] | 10 to 100 | > 1 | 0.101 to 1
COC(=O)N[C@H](C(=O)N1CCC[C@H]1c1ncc(-c2ccc(-c3ccc(-c4cnc(C5C6CCC(C6)[C@H]5C(=O)NC(C)c5cccnc5)[nH]4)cc3)cc2)[nH]1)[C@@H](C)OC (stereo partly drawn) [AA_251_A] | 0.101 to 1 | > 1 | 0.101 to 1
COC(=O)N[C@H](C(=O)N1CCC[C@H]1c1ncc(-c2ccc(-c3ccc(-c4cnc(C5CC6(C[C@@H]5C(=O)N(NC(=O)OC)C(C)C)OCCO6)[nH]4)cc3)cc2)[nH]1)C(C)C (stereo partly drawn) [AA_160] | 1 to 10 | > 50 | 0.001 to 0.1
COC(=O)N[C@H](C(=O)N1CCC[C@H]1c1ncc(-c2ccc(-c3ccc(-c4cnc([C@H]5CCCC[C@@H]5C(=O)NCc5cccnc5)[nH]4)cc3)cc2)[nH]1)C(C)C [AA_150_A] | 10 to 100 | > 10 | 0.101 to 1
COC(=O)N[C@H](C(=O)N1CCC[C@H]1c1ncc(-c2ccc(-c3ccc(-c4cnc(C5C6CCC(C6)[C@H]5C(=O)NCc5ccc(C(C)C)nc5)[nH]4)cc3)cc2)[nH]1)[C@@H](C)OC (stereo partly drawn) [AA_265_B] | 10 to 100 | > 1 | 0.101 to 1
COC(=O)N[C@H](C(=O)N1CCC[C@H]1c1ncc(-c2ccc(-c3ccc(-c4cnc([C@H]5C6CCC(C6)[C@@H]5C(=O)NCc5nccs5)[nH]4)cc3)cc2)[nH]1)C(C)C (stereo partly drawn) [AA_208_A] | 1 to 10 | > 1 | 0.001 to 0.1
COC(=O)N[C@H](C(=O)N1CCC[C@H]1c1ncc(-c2ccc(-c3ccc(-c4cnc([C@@H]5C6CCC(C6)[C@H]5C(=O)NC(C)c5cccnc5)[nH]4)cc3)cc2)[nH]1)C(C)C (stereo partly drawn) [AA_204_B] | 1 to 10 | > 1 | 0.001 to 0.1
COC(=O)N[C@H](C(=O)N1CCC[C@H]1c1ncc(-c2ccc(-c3ccc(-c4cnc([C@@H]5[C@H]6CC[C@H](C6)[C@H]5C(=O)NCc5cccnc5)[nH]4)cc3)cc2)[nH]1)C(C)C [AA_162_ENDOA2] | 0.101 to 1 | > 1 | 0.001 to 0.1
